Reference: ChEMBL document CHEMBL3046717, “Synthesis of Alkylene-Tethered Bis-Imidacloprid Derivatives as Highly Insecticidal and Nerve-Exciting Agents with Potent Affinity to [3H] Imidacloprid-Binding Sites on Nicotinic Acetylcholine Receptor” (J Pestic Sci, 2002)

Tests used:
Periplaneta americana [1] = experiment: (§1) Insecticidal activity against Periplaneta americana (American cockroach) assessed as killing compound injected into abdomen of cockroach after 24 hr in presence of 50 ug piperonyl butoxide oxidative metabolism inhibitor measured per insect; assay type: functional
Periplaneta americana [2] = experiment: Insecticidal activity against Periplaneta americana (American cockroach) assessed as changes in frequency of firing in nerve cords in nerve preparation measured for every 30 secs immediately after treatment at 9x10'-7 M by electrophysiological method; assay type: functional; settings: TDE = time-dependent effect
Periplaneta americana [3] = experiment: as §1, with “inhibitor and 50 ug propargyl propyl benzenephosphonate inhibitor of hydrolytic” for “inhibitor”; assay type: functional
Periplaneta americana [4] = experiment: Insecticidal activity against Periplaneta americana (American cockroach) assessed as killing compound injected into abdomen of cockroach after 24 hr in presence of 50 ug propargyl propyl benzenephosphonate inhibitor of hydrolytic metabolism of tetramethrin pyrethroid measured per insect relative to compound alone; assay type: functional
Periplaneta americana [5] = experiment: (§2) Insecticidal activity against Periplaneta americana (American cockroach) assessed as killing compound injected into abdomen of cockroach after 24 hr in presence of 50 ug piperonyl butoxide oxidative metabolism inhibitor measured per insect relative to compound alone; assay type: functional
Periplaneta americana [6] = experiment: Insecticidal activity against Periplaneta americana (American cockroach) assessed as killing compound injected into abdomen of cockroach after 24 hr measured per insect; assay type: functional
Periplaneta americana [7] = experiment: Insecticidal activity against Periplaneta americana (American cockroach) assessed as killing compound injected into abdomen of cockroach after 24 hr in presence of 50 ug propargyl propyl benzenephosphonate inhibitor of hydrolytic metabolism of tetramethrin pyrethroid measured per insect; assay type: functional
Periplaneta americana [8] = experiment: as §2, with “inhibitor and 50 ug propargyl propyl benzenephosphonate inhibitor of hydrolytic” for “inhibitor”; assay type: functional
Periplaneta americana [9] = experiment: Insecticidal activity against Periplaneta americana (American cockroach) assessed as changes in frequency of firing in nerve cords in nerve preparation measured for every 30 secs immediately after treatment at 3x10'-6 M by electrophysiological method; assay type: functional, organism-based; settings: TDE = time-dependent effect
[10] = target: T1, Nicotinic acetylcholine receptor alpha 5 subunit (Musca domestica, UniProt A9XFY4); experiment: Displacement of [3H]imidacloprid from Musca domestica (house fly)-head membrane nAChR
T1 sequence (A9XFY4 whole entry): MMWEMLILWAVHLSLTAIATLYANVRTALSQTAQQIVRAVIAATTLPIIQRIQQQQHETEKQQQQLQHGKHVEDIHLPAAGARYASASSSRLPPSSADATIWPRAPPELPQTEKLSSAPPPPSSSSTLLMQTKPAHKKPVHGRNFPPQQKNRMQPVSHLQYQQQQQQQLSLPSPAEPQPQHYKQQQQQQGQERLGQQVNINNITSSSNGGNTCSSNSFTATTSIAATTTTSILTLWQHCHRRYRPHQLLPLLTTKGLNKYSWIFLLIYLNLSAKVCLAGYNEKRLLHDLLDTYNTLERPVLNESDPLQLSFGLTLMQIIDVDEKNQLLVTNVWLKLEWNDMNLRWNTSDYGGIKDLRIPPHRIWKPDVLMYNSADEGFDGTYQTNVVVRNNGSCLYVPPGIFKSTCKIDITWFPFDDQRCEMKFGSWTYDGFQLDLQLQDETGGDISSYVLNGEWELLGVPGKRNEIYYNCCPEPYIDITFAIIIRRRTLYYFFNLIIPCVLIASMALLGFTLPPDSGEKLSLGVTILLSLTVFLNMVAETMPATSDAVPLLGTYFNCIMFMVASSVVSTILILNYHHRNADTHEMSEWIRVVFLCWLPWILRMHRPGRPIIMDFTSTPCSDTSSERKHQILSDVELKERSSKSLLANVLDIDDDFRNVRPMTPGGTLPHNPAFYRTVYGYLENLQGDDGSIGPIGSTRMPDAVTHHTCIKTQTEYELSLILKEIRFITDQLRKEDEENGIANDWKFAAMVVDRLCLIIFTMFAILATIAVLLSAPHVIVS

[11] = target: T2, Nicotinic acetylcholine receptor alpha 5 subunit (Musca domestica) (UniProt A9XFY4); experiment: Displacement of [3H]imidacloprid from Musca domestica (house fly)-head membrane nAChR relative to N,N'-(3,3'-(hexane-1,6-diyl)bis(1-((6-chloropyridin-3-yl)methyl)imidazolidin-3-yl-2-ylidene))dinitramide
T2 sequence (whole entry): T1 sequence (A9XFY4 whole entry)

Row | Compound | MLD (Periplaneta americana [1]) | Activity (Periplaneta americana [2]) | MLD (Periplaneta americana [3]) | Ratio (Periplaneta americana [4]) | Ratio (Periplaneta americana [5]) | MLD (Periplaneta americana [6]) | MLD (Periplaneta americana [7]) | Ratio (Periplaneta americana [8]) | Activity (Periplaneta americana [9]) | IC50 [10] | Ratio [11]
1 | O=[N+]([O-])/N=C1\N(CCCCCCN2CCN(Cc3ccc(Cl)nc3)/C2=N/[N+](=O)[O-])CCN1Cc1ccc(Cl)nc1 | 0.58 nmol | tde | 0.29 nmol | 10 | 4 | 2.2 nmol | 0.22 nmol | 8 | tde | 3.1 µM | 
2 | O=[N+]([O-])NC1=NCCN1Cc1ccc(Cl)nc1 [IMIDACLOPRID] |  |  |  |  |  |  |  |  |  | 0.02 µM | 
3 | O=[N+]([O-])/N=C1\N(CCCCN2CCN(Cc3ccc(Cl)nc3)/C2=N/[N+](=O)[O-])CCN1Cc1ccc(Cl)nc1 |  |  | 6.5 nmol |  |  | 11 nmol |  | 2 |  |  | 
4 | O=[N+]([O-])/N=C1/N(CCCOCCCN2CCN(Cc3ccc(Cl)nc3)/C2=N/[N+](=O)[O-])CCN1Cc1ccc(Cl)nc1 | 0.23 nmol |  | 0.3 nmol | 20 | 26 | 5.9 nmol | 0.3 nmol | 20 |  | 73 µM | 0.042
5 | O=[N+]([O-])/N=C1\N(CC#CCN2CCN(Cc3ccc(Cl)nc3)/C2=N/[N+](=O)[O-])CCN1Cc1ccc(Cl)nc1 |  |  | 0.3 nmol |  |  | 3.7 nmol |  | 12 |  |  | 
6 | O=[N+]([O-])/N=C1\N(CCN2CCN(Cc3ccc(Cl)nc3)/C2=N/[N+](=O)[O-])CCN1Cc1ccc(Cl)nc1 | 8.3 nmol |  | 1.1 nmol | 4 | 1 | 8.3 nmol | 2.2 nmol | 8 |  | 110 µM | 0.028
7 | O=[N+]([O-])/N=C1\N(CCCCCCCCN2CCN(Cc3ccc(Cl)nc3)/C2=N/[N+](=O)[O-])CCN1Cc1ccc(Cl)nc1 |  |  | 0.17 nmol |  |  | 4.5 nmol |  | 26 |  |  | 
8 | O=[N+]([O-])/N=C1/N(CCCCCCCCCN2CCN(Cc3ccc(Cl)nc3)/C2=N/[N+](=O)[O-])CCN1Cc1ccc(Cl)nc1 |  |  | 0.17 nmol |  |  | 2.8 nmol |  | 16 |  |  | 
9 | O=[N+]([O-])/N=C1/N(Cc2ccc(Cl)nc2)CCN1Cc1cccc(N2CCN(Cc3ccc(Cl)nc3)/C2=N\[N+](=O)[O-])c1 |  |  | 1 nmol |  |  | 20 nmol |  | 20 |  |  | 
10 | O=[N+]([O-])/N=C1\N(C/C=C/CN2CCN(Cc3ccc(Cl)nc3)/C2=N/[N+](=O)[O-])CCN1Cc1ccc(Cl)nc1 |  |  | 1.5 nmol |  |  | 30 nmol |  | 20 |  |  | 
11 | O=[N+]([O-])/N=C1\N(Cc2ccc(N3CCN(Cc4ccc(Cl)nc4)/C3=N\[N+](=O)[O-])cc2)CCN1Cc1ccc(Cl)nc1 | 6.7 nmol |  | 0.54 nmol | 10 | 4 | 27 nmol | 2.7 nmol | 50 |  |  | 
12 | O=[N+]([O-])/N=C1/N(CCCCCN2CCN(Cc3ccc(Cl)nc3)/C2=N/[N+](=O)[O-])CCN1Cc1ccc(Cl)nc1 |  |  | 0.16 nmol |  |  | 3.9 nmol |  | 24 |  |  | 
13 | O=[N+]([O-])/N=C1\NCCN1Cc1ccc(Cl)nc1 [IMIDACLOPRID] | 0.78 nmol |  | 0.07 nmol | 13 | 3 | 2.5 nmol | 0.19 nmol | 36 |  |  | 160
14 | O=[N+]([O-])/N=C1\N(CCCCCCCCCCN2CCN(Cc3ccc(Cl)nc3)/C2=N/[N+](=O)[O-])CCN1Cc1ccc(Cl)nc1 | 1.5 nmol |  | 0.23 nmol | 19 | 2 | 3.7 nmol | 0.19 nmol | 16 |  | 27 µM | 0.11
15 | O=[N+]([O-])/N=C1/N(CCCN2CCN(Cc3ccc(Cl)nc3)/C2=N/[N+](=O)[O-])CCN1Cc1ccc(Cl)nc1 |  |  | 0.79 nmol |  |  | 4.9 nmol |  | 6 |  |  | 
16 | O=[N+]([O-])/N=C1/N(CCCCCCCN2CCN(Cc3ccc(Cl)nc3)/C2=N/[N+](=O)[O-])CCN1Cc1ccc(Cl)nc1 [Heptamethylene 1,7-bis-imadacloprid] |  |  | 0.22 nmol |  |  | 2.8 nmol |  | 13 |  |  | 
